The source of these data is paper PMC4747042 (Molecular microbiology, 2009).

The target of this assay is T1, MenA (Mycobacterium tuberculosis, UniProt P9WIP3).
T1 sequence (P9WIP3 1-292): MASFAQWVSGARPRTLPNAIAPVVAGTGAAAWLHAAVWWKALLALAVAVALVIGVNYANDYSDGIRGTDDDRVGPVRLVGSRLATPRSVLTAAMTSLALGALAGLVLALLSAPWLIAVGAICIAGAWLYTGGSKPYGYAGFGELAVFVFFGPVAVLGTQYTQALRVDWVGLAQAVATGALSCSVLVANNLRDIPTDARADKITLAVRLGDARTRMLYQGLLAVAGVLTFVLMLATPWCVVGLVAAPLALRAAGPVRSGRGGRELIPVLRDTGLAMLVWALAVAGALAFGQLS
Format: biochemical.

A word on the IC50: it is the point on the concentration scale where inhibition reaches its midpoint. Low readings indicate greater potency, high ones weaker potency. Take `C=CCN(C)CCCCCCOc1ccc(C(=O)c2ccc(Br)cc2)c(F)c1` [Ro 48-8071]: the IC50 is 9 µM.
